From patent US20250326807A1, “CALPROTECTIN BINDING PEPTIDES” (Buehlmann Laboratories AG, priority 2022, published 2025)
Read-outs that look alike come from different tables or passages of the source. Ends that are not written are not given here.

Key:
[1] = system: human recombinant calprotectin; test: Fluorescence polarization affinity measurement of fluorescein-labelled peptides; format: binding
Method: The reaction mixture was incubated at 30° C. for 1 hr, and the completion of the reaction was assessed by LCMS. The reaction was stopped by addition of HCOOH (200 μL) and the cyclized peptide was lyophilized. The final purification was performed as before with a reversed-phase C18 column (X-bridge peptide BEH C18 5 μm, 300 Å, 10×250 mm, Waters) applying a flow rate of 6 mL/min and an appropriate linear gradient in 40 min. Fractions containing the desired peptide were lyophilized. The purity of the peptides was assessed by analysing around 20 μg of peptide by RP-HPLC (1260 HPLC system, Agilent) using a C18 column (ZORBAX 300SB-C18, 5 μm, 300 Å, 4.6×250 mm, Agilent). Peptides were run at a flow rate of 1 mL min^−1 with a linear gradient of 0-100% of solvent B over 15 min (A: 94.9% H2O, 5% ACN and 0.1% TFA; B: 99.9% ACN and 0.1% TFA). The mass was determined by electrospray ionization mass spectrometry (ESI-MS) in positive ion mode on a single quadrupole liquid chromatography mass spectrometer (LCMS-2020, Shimadzu). In order to measure the affinity of selected and synthesized peptides in fluorescence polarization, calprotectin was serially diluted in 20 mM HEPES, 100 mM NaCl, 2 mM CaCl2, pH 7.5, 1 mM DTT with 0.01% v/v Tween-20. 16 μL of protein were added to 4 μL of the fluorescent peptide (20 nM final concentration) in 96-well microtiter plates (black, half-area). Fluorescence anisotropy was measured on a microwell plate reader (Infinite M200Pro, Tecan), with a filter for excitation at 485 nm and emission at 535 nm. Dissociation constant (Kd) was calculated using the following equation on Prism 5 (GraphPad): […]
were A is anisotropy, Af and Ab are the anisotropy values for free and bound ligand, respectively. [L]T is the concentration of total fluorescent ligand and [P]T the concentration of the protein.
Subsequent fluorescence polarization experiments were performed according to example 1.

Calprotectin [2] = test: Surface plasmon resonance (Biacore 8K) with immobilized Calprotectin; format: binding, human; conditions: highest concentration tested (500 nM)
Method: In order to complement and validate the results obtained by FP, binding responses and kinetics of peptides with immobilized Calprotectin were analysed by SPR. The experiments were performed using a Biacore™ 8K instrument (GE Healthcare). Calprotectin (at 5 μg/mL) was dissolved in 10 mM acetate buffer (pH 5.0) and immobilized on a CM5 series S chip by standard amine coupling method in running buffer (10 mM HEPES pH 7.4, 150 mM NaCl, 2 mM CaCl2, and 0.005% v/v Tween-20) at 25° C. Typical immobilization levels were 3000 resonance units (RUs). Reference cell was treated in the same way but without the injection of protein. A single concentration for each peptide (500 nM) was injected in running buffer (10 mM HEPES pH 7.4, 150 mM NaCl, 2 mM CaCl2, 0.005% v/v Tween-20 and 0.5% v/v DMSO) to measure the binding level. For the measurement of binding kinetics and dissociation constants, five serial dilutions (3-fold) of peptides were prepared in running buffer (with 0.5% DMSO) and analysed in single cycle kinetics mode with the contact and dissociation times of 90 s and 120 s, respectively.
The structure-activity relationship (SAR) analysis of Peptide 3 was assessed by synthesizing a large number of variants of Peptide 3 in which only one amino acid was altered at a time and the binding affinity was measured by surface plasmon resonance (SPR) and fluorescence polarization (FP).

Calprotectin [3] = target: T1, Calprotectin (Homo sapiens, UniProt P05109+P06702); test: Sandwich ELISA with biotinylated calprotectin binding peptide and Strep-HRP; conditions: incubation times of 60 minutes
T1 sequence (P05109 1-93): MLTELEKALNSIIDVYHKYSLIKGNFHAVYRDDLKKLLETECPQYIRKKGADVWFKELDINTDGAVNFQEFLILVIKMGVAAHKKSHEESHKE
T1 sequence (P06702 1-114): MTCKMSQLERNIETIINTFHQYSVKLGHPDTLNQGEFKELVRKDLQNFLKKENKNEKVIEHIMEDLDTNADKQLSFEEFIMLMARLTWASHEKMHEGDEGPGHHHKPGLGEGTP
Method: The wells of 96 well Immulon 4 HBX-Extra High Binding plates (Thermo Fisher Scientific) were coated by overnight incubation at 4° C. with 80 μL of a 0.5 μg/mL solution of anti-calprotectin rabbit polyclonal antibody in Na2HCO3 (0.2 M, pH 9.4). The plates were rinsed four times with 200 μL of washing buffer (25 mM Tris, 150 mM NaCl, 2 mM CaCl2, PH 7.4, with 0.05% v/v Tween-20) per well. Then, all the wells were blocked by incubation with 300 μL of blocking buffer (25 mM Tris, 150 mM NaCl, pH 7.4, with 0.05% v/v Tween-20 and 3% w/v BSA) for 1 h at room temperature with shaking. After this time, the blocking buffer was removed and 80 μL of calprotectin was added in dilution buffer (wash buffer with 1% w/v BSA) for 1h at room temperature with shaking. The wells were washed 4 times with washing buffer. […] The solution was removed and the wells were washed 6times with washing buffer. 80 μL of TMB substrate (ready to use solution, SigmaAldrich) were added for 30 minutes and the reaction was stopped with 40 μL of sulfuric acid (2 M). The absorbance was read at 450 nm in a microwell plate reader (Infinite M200Pro, Tecan).

Substance: ACRTCPLFTCPSCG (not fully specified; cyclised or stapled)
- affinity to recombinant calprotectin (in words) [1]: excellent binding affinity

Substance: CQCPWDLFSQHSLSDCCD (cyclised or stapled)
- affinity to recombinant calprotectin (in words) [1]: excellent binding affinity

Substance: CTQSPCPLYDSHQCSCK (cyclised or stapled)
- affinity to recombinant calprotectin (in words) [1]: excellent binding affinity

Substance: GCDLAHQPCPLYKCTKCP (cyclised or stapled)
- affinity to recombinant calprotectin (in words) [1]: excellent binding affinity

Substance: RCPECVAFPMFQCHWYCG [peptide 3]
- affinity to recombinant calprotectin (in words) [1]: excellent binding affinity
- SPR signal change (Calprotectin [2]): ~40 response units

Substance: RSPESVAFPMFQSHWYSG [linear peptide 3, fully linear peptide comprising only serines instead of cysteines]
- affinity to recombinant calprotectin (in words) ([1]; listed as RSPESVAFPMFQSHWYSG): excellent binding affinity
- affinity to recombinant calprotectin (in words) ([1]; listed as fully linear peptide): comparable affinities

Substance: SCQCPWDLFSQHSLSDCCD (cyclised or stapled)
- affinity to recombinant calprotectin (in words) [1]: excellent binding affinity

Substance: Strep-HRP biotinylated peptide complex: linear peptide 3-biotin pre-mixed with streptavidin conjugated horse radish peroxidase (RSPESVAFPMFQSHWYSG; also: biotin, end not given here, non-covalent complex with streptavidin-HRP)
- detectable calprotectin concentration (Calprotectin [3]): below 5 nM

Substance: TCPLNRTQCPLYACTTCP (not fully specified; cyclised or stapled)
- affinity to recombinant calprotectin (in words) [1]: excellent binding affinity

Substance: VCPCPLFRAHGCSRFSCQ (not fully specified; cyclised or stapled)
- affinity to recombinant calprotectin (in words) [1]: excellent binding affinity

Substance: VCQQTASRCPVWECQRCP (not fully specified; cyclised or stapled)
- affinity to recombinant calprotectin (in words) [1]: excellent binding affinity

Substance: WCTQSPCPLYDSHQCSCK (not fully specified; cyclised or stapled)
- affinity to recombinant calprotectin (in words) [1]: excellent binding affinity
